Data from PubChem BioAssay AID2060498 (Molecular Pharmacology Branch, DTP, NCI, 2025).

Test system: 171881-019-R-J1-PDC tumor spheroids, viability
Experiment: Anticancer human tumor 171881-019-R-J1-PDC patient-derived invasive breast carcinoma cell line growth inhibition [GQUAD]
Settings: spheroids with HUVEC and MSC; for IC50: curve of first compound; for viability, T/C: stronger effect = lower value
Procedure, shortened: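 Tumor cells were grown as complex spheroids with HUVEC endothelial cells and mesenchymal stem cells as stroma. G-quadruplex stabilizers were combined with targeted agents over half-log dilutions from near the clinical Cmax, or from 10 microM.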

[1] = second compound 0.0316 µM, first compound 0.0316 µM
[2] = second compound 0.0316 µM, first compound 0.1 µM
[3] = second compound 0.0316 µM, first compound 0.316 µM
[4] = second compound 0.0316 µM, first compound 1 µM
[5] = second compound 0.0316 µM, first compound 3.16 µM
[6] = second compound 0.0316 µM, first compound 10 µM
[7] = second compound 0.1 µM, first compound 0.0316 µM
[8] = second compound 0.1 µM, first compound 0.1 µM
[9] = second compound 0.1 µM, first compound 0.316 µM
[10] = second compound 0.1 µM, first compound 1 µM
[11] = second compound 0.1 µM, first compound 3.16 µM
[12] = second compound 0.1 µM, first compound 10 µM
[13] = second compound 0.316 µM, first compound 0.0316 µM
[14] = second compound 0.316 µM, first compound 0.1 µM
[15] = second compound 0.316 µM, first compound 0.316 µM
[16] = second compound 0.316 µM, first compound 1 µM
[17] = second compound 0.316 µM, first compound 3.16 µM
[18] = second compound 0.316 µM, first compound 10 µM
[19] = second compound 1 µM, first compound 0.0316 µM
[20] = second compound 1 µM, first compound 0.1 µM
[21] = second compound 1 µM, first compound 0.316 µM
[22] = second compound 1 µM, first compound 1 µM
[23] = second compound 1 µM, first compound 3.16 µM
[24] = second compound 1 µM, first compound 10 µM
[25] = second compound 3.16 µM, first compound 0.0316 µM
[26] = second compound 3.16 µM, first compound 0.1 µM
[27] = second compound 3.16 µM, first compound 0.316 µM
[28] = second compound 3.16 µM, first compound 1 µM
[29] = second compound 3.16 µM, first compound 3.16 µM
[30] = second compound 3.16 µM, first compound 10 µM
[31] = second compound 10 µM, first compound 0.0316 µM
[32] = second compound 10 µM, first compound 0.1 µM
[33] = second compound 10 µM, first compound 0.316 µM
[34] = second compound 10 µM, first compound 1 µM
[35] = second compound 10 µM, first compound 3.16 µM
[36] = second compound 10 µM, first compound 10 µM
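Also: spheroids exposed to compounds for 7 days.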
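For viability, T/C in this document: 100% = DMSO vehicle control viability.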

Which IC50 (second compound 0.0316 µM) does the source give for `CCCS(=O)(=O)Nc1ccc(F)c(C(=O)c2c[nH]c3ncc(-c4ccc(Cl)cc4)cc23)c1F` + Cc1cnc(CNC(=O)c2c(=O)c3ccc(N4CCCN(C)CC4)nc3n3c2sc2ccccc23)cn1 here?
The IC50 was > 10 µM.

What about the IC50 (second compound 0.1 µM) of the same molecule?
The IC50 was > 10 µM.

And the IC50 (second compound 0.316 µM)?
Its IC50 is > 10 µM.

What about the IC50 (second compound 1 µM) of the same molecule?
The IC50 was > 10 µM.

What about the IC50 (second compound 3.16 µM) of the same molecule?
Its IC50 is > 10 µM.

And the IC50 (second compound 10 µM)?
Its IC50 is > 10 µM.

And the viability, T/C [1]?
Its viability, T/C is 104%.

And the viability, T/C [2]?
The viability, T/C was 95.3%.

What about the viability, T/C [3] of the same molecule?
The viability, T/C was 108%.

What about the viability, T/C [4] of the same molecule?
The viability, T/C was 112%.

What about the viability, T/C [5] of the same molecule?
The viability, T/C was 117%.

And the viability, T/C [6]?
The viability, T/C was 69.3%.

And the viability, T/C [7]?
Its viability, T/C is 83%.

And the viability, T/C [8]?
The viability, T/C was 95.2%.

What about the viability, T/C [9] of the same molecule?
Its viability, T/C is 90.4%.

And the viability, T/C [10]?
The viability, T/C was 102%.

And the viability, T/C [11]?
The viability, T/C was 92.2%.

What about the viability, T/C [12] of the same molecule?
The viability, T/C was 54.9%.

What about the viability, T/C [13] of the same molecule?
Its viability, T/C is 78%.

And the viability, T/C [14]?
Its viability, T/C is 78.8%.

What about the viability, T/C [15] of the same molecule?
The viability, T/C was 81.9%.

And the viability, T/C [16]?
The viability, T/C was 78.7%.

What about the viability, T/C [17] of the same molecule?
The viability, T/C was 91.9%.

What about the viability, T/C [18] of the same molecule?
Its viability, T/C is 52.1%.

What about the viability, T/C [19] of the same molecule?
Its viability, T/C is 72.1%.

And the viability, T/C [20]?
Its viability, T/C is 66.5%.

What about the viability, T/C [21] of the same molecule?
Its viability, T/C is 79.5%.

What about the viability, T/C [22] of the same molecule?
The viability, T/C was 69.5%.

What about the viability, T/C [23] of the same molecule?
The viability, T/C was 82.3%.

And the viability, T/C [24]?
Its viability, T/C is 59.6%.

What about the viability, T/C [25] of the same molecule?
The viability, T/C was 63.9%.

And the viability, T/C [26]?
The viability, T/C was 61.8%.

And the viability, T/C [27]?
The viability, T/C was 68.5%.

And the viability, T/C [28]?
Its viability, T/C is 66.6%.

And the viability, T/C [29]?
The viability, T/C was 67.5%.

What about the viability, T/C [30] of the same molecule?
The viability, T/C was 53%.

And the viability, T/C [31]?
Its viability, T/C is 59.9%.

What about the viability, T/C [32] of the same molecule?
Its viability, T/C is 62.1%.

What about the viability, T/C [33] of the same molecule?
The viability, T/C was 59.4%.

And the viability, T/C [34]?
The viability, T/C was 68%.

And the viability, T/C [35]?
Its viability, T/C is 68.4%.

And the viability, T/C [36]?
Its viability, T/C is 51.8%.

Which results are given for `Cc1[nH]c2ccccc2c1CCNCc1ccc(/C=C/C(=O)NO)cc1` + Cc1cnc(CNC(=O)c2c(=O)c3ccc(N4CCCN(C)CC4)nc3n3c2sc2ccccc23)cn1?
IC50 (second compound 0.0316 µM): 0.0433 µM; IC50 (second compound 0.1 µM): 0.0475 µM; IC50 (second compound 0.316 µM): 0.0434 µM; IC50 (second compound 1 µM): 0.046 µM; IC50 (second compound 3.16 µM): 0.0372 µM; IC50 (second compound 10 µM): 0.0376 µM; viability, T/C (second compound 0.0316 µM, first compound 0.000999 µM): 108%; viability, T/C (second compound 0.0316 µM, first compound 0.00316 µM): 89.9%; viability, T/C (second compound 0.0316 µM, first compound 0.00999 µM): 81.7%; viability, T/C [1]: 61.3%; viability, T/C (second compound 0.0316 µM, first compound 0.0999 µM): 26.1%; viability, T/C [3]: 0.61%; viability, T/C (second compound 0.1 µM, first compound 0.000999 µM): 89.1%; viability, T/C (second compound 0.1 µM, first compound 0.00316 µM): 75.4%; viability, T/C (second compound 0.1 µM, first compound 0.00999 µM): 69.1%; viability, T/C [7]: 66.9%; viability, T/C (second compound 0.1 µM, first compound 0.0999 µM): 24.9%; viability, T/C [9]: 0.91%; viability, T/C (second compound 0.316 µM, first compound 0.000999 µM): 75.3%; viability, T/C (second compound 0.316 µM, first compound 0.00316 µM): 71.1%; viability, T/C (second compound 0.316 µM, first compound 0.00999 µM): 71.2%; viability, T/C [13]: 58.9%; viability, T/C (second compound 0.316 µM, first compound 0.0999 µM): 26.6%; viability, T/C [15]: 0.83%; viability, T/C (second compound 1 µM, first compound 0.000999 µM): 71.9%; viability, T/C (second compound 1 µM, first compound 0.00316 µM): 61.2%; viability, T/C (second compound 1 µM, first compound 0.00999 µM): 64%; viability, T/C [19]: 62.9%; viability, T/C (second compound 1 µM, first compound 0.0999 µM): 23.4%; viability, T/C [21]: 0.22%; viability, T/C (second compound 3.16 µM, first compound 0.000999 µM): 60.9%; viability, T/C (second compound 3.16 µM, first compound 0.00316 µM): 57.4%; viability, T/C (second compound 3.16 µM, first compound 0.00999 µM): 67.8%; viability, T/C [25]: 55.9%; viability, T/C (second compound 3.16 µM, first compound 0.0999 µM): 12.2%; viability, T/C [27]: 0.93%; viability, T/C (second compound 10 µM, first compound 0.000999 µM): 57.4%; viability, T/C (second compound 10 µM, first compound 0.00316 µM): 61.3%; viability, T/C (second compound 10 µM, first compound 0.00999 µM): 57.1%; viability, T/C [31]: 58.1%; viability, T/C (second compound 10 µM, first compound 0.0999 µM): 3.88%; viability, T/C [33]: 0.37%

Which IC50 (second compound 0.0316 µM) does the source give for `Cc1cccc(N(C)C(=O)C2C(O)CCN2c2nc(C)cc(C(F)(F)F)c2C#N)c1` (stereo unspecified) + Cc1cnc(CNC(=O)c2c(=O)c3ccc(N4CCCN(C)CC4)nc3n3c2sc2ccccc23)cn1 here?
Its IC50 is > 10 µM.

What about the IC50 (second compound 0.1 µM) of the same molecule?
The IC50 was > 10 µM.

And the IC50 (second compound 0.316 µM)?
The IC50 was > 10 µM.

What about the IC50 (second compound 1 µM) of the same molecule?
Its IC50 is > 10 µM.

And the IC50 (second compound 3.16 µM)?
Its IC50 is > 10 µM.

And the IC50 (second compound 10 µM)?
Its IC50 is > 10 µM.

And the viability, T/C [1]?
Its viability, T/C is 105%.

What about the viability, T/C [2] of the same molecule?
The viability, T/C was 87.2%.

What about the viability, T/C [3] of the same molecule?
The viability, T/C was 90.4%.

And the viability, T/C [4]?
The viability, T/C was 92.2%.

What about the viability, T/C [5] of the same molecule?
Its viability, T/C is 88.5%.

And the viability, T/C [6]?
The viability, T/C was 79.7%.

And the viability, T/C [7]?
The viability, T/C was 86.9%.

What about the viability, T/C [8] of the same molecule?
Its viability, T/C is 88%.

What about the viability, T/C [9] of the same molecule?
Its viability, T/C is 77.6%.

And the viability, T/C [10]?
The viability, T/C was 76.2%.

What about the viability, T/C [11] of the same molecule?
The viability, T/C was 80.6%.

And the viability, T/C [12]?
The viability, T/C was 79.5%.

What about the viability, T/C [13] of the same molecule?
The viability, T/C was 73.5%.

What about the viability, T/C [14] of the same molecule?
The viability, T/C was 73.1%.

What about the viability, T/C [15] of the same molecule?
The viability, T/C was 75.8%.

And the viability, T/C [16]?
The viability, T/C was 69.7%.

And the viability, T/C [17]?
Its viability, T/C is 77.7%.

What about the viability, T/C [18] of the same molecule?
Its viability, T/C is 69%.

And the viability, T/C [19]?
Its viability, T/C is 67.5%.

And the viability, T/C [20]?
The viability, T/C was 66.5%.

What about the viability, T/C [21] of the same molecule?
Its viability, T/C is 71.1%.

What about the viability, T/C [22] of the same molecule?
The viability, T/C was 66.4%.

And the viability, T/C [23]?
Its viability, T/C is 74.2%.

What about the viability, T/C [24] of the same molecule?
Its viability, T/C is 70.3%.

What about the viability, T/C [25] of the same molecule?
Its viability, T/C is 65.3%.

What about the viability, T/C [26] of the same molecule?
Its viability, T/C is 60.9%.

What about the viability, T/C [27] of the same molecule?
The viability, T/C was 63.1%.

And the viability, T/C [28]?
The viability, T/C was 55.9%.

What about the viability, T/C [29] of the same molecule?
The viability, T/C was 68.8%.

What about the viability, T/C [30] of the same molecule?
Its viability, T/C is 67.8%.

And the viability, T/C [31]?
The viability, T/C was 60.9%.

What about the viability, T/C [32] of the same molecule?
The viability, T/C was 66.7%.

And the viability, T/C [33]?
The viability, T/C was 61.3%.

And the viability, T/C [34]?
Its viability, T/C is 66.2%.

And the viability, T/C [35]?
The viability, T/C was 67.6%.

What about the viability, T/C [36] of the same molecule?
The viability, T/C was 66.8%.
